Reference: patent publication US9815854B2, “3-(3H-imidazo[4,5-B]pyridin-2-yl)-1H-pyrazolo[3,4-C]pyridine and therapeutic uses thereof” (Samumed, LLC, priority 2014, dated 2017)

Test system: Wnt activity (Sp5-Luc reporter, TCF/LEF binding sites) in SW480 colon carcinoma cells
Experiment: Sp5-Luc Wnt reporter gene screening assay in SW480 colon carcinoma cells
Type: cell-based, human
Conditions: not given
Excerpt: The screening assay for Wnt activity is described as follows. Reporter cell lines can be generated by stably transducing cancer cell lines (e.g., colon cancer) or primary cells (e.g., IEC-6 intestinal cells) with a lentiviral construct that includes a Wnt-responsive promoter driving expression of the firefly luciferase gene.
SW480 colon carcinoma cells were transduced with a lentiviral vector expressing luciferase with a human Sp5 promoter consisting of a sequence of eight TCF/LEF binding sites. SW480 cells stably expressing the Sp5-Luc reporter gene and a hygromycin resistance gene were selected by treatment with 150 μg/ml of hygroinycin for 7 days. These stably transduced SW480 cells were expanded in cell culture and used for all further screening activities. For Sp5-Luc reporter gene assays, the cells were plated at 10,000 cells/well in 96-well plates with growth medium containing 10% fetal calf serum and incubated overnight at 37° C. and 5% CO2. Each compound was dissolved in DMSO as a 10 mM stock in standard j-vials and used to prepare compound source plates in dose-response format with 3-fold serial dilutions and a 10 mM top concentration. Compound transfer from serially diluted source plates to assay plates containing the cells was accomplished using a pintool (Multimek 96, Beckman equipped with V&P Scientific FP1S50H pins) based liquid handling protocol. This protocol used a slotted pin to transfer 50 nl of compound from a source plate well to an assay plate well containing 50 μl of cells in growth medium. […] Control wells received 50 nl of DMSO treatment for nommlization and calculating IC50 values. The treated cells were incubated at 37° C. and 5% CO2 for an additional forty-two hours. Following incubation, the growth medium was removed and 50 μl of BrightGlo luminescence reagent (Promega) was added to each well of the 96-well assay plates. The plates were placed on an orbital shaker for 5 min and then luminescence was quantified on the Victor3 (Perkin Elmer) plate reader. Readings were normalized to DMSO only treated cells, and normalized activities were utilized for IC50 calculations using the dose-response log (inhibitor) vs. response—variable slope (four parameters) nonlinear regression feature available in GraphPad Prism 5.0 or 6.0.

IC50	Structure (SMILES)
> 1000 nM	Fc1cccc(-c2ccnc3[nH]c(-c4n[nH]c5cnc(-c6ccncc6)cc45)nc23)c1 [Compound 952, -(7-(3-Fluorophenyl)-3H-imidazo[4,5-b]pyridin-2-yl)-5-(pyridin-4-yl)-1 H-pyrazolo[3,4-c]pyridine]
> 10000 nM	CC(C)CC(=O)Nc1cncc(-c2cc3c(-c4nc5c(-c6cc(F)cc(OCCN(C)C)c6)ccnc5[nH]4)n[nH]c3cn2)c1 [Compound 1262]

Same assay, conditions: Homo sapiens

Structure (SMILES)	IC50
CC(C)C(=O)Nc1cncc(-c2cc3c(-c4nc5c(-c6ccccc6F)ccnc5[nH]4)n[nH]c3cn2)c1 [Compound 61, N-(5-(3-(7-(2-Fluorophenyl)-3H-imidazo[4,5-b]pyridin-2-yl)-1H-pyrazolo[3,4-c]pyridin-5-yl)pyridin-3-yl)isobutyramide]	77.8 nM
c1cncc(-c2ccnc3[nH]c(-c4n[nH]c5cnc(-c6cncc(CN7CCCCC7)c6)cc45)nc23)c1 [Compound 93, 5-(5-(Piperidin-1-ylmethyl)pyridin-3-yl)-3-(7-(pyridin-3-yl)-3H-imidazo[4,5-b]pyridin-2-yl)-1H-pyrazolo[3,4-c]pyridine]	> 10000 nM
CN(C)c1cncc(-c2cc3c(-c4nc5c(N6CCCCC6)ccnc5[nH]4)n[nH]c3cn2)c1 [Compound 163, N,N-Dimethyl-5-(3-(7-(piperidin-1-yl)-3H-imidazo[4,5-b]pyridin-2-yl)-1H-pyrazolo[3,4-c]pyridin-5-yl)pyridin-3-amine]	1030 nM
CC(C)(C)C(=O)Nc1cncc(-c2cc3c(-c4nc5c(-c6ccc(F)s6)ccnc5[nH]4)n[nH]c3cn2)c1 [Compound 346, N-(5-(3-(7-(5-Fluorothiophen-2-yl)-3H-imidazo-[4,5-b]pyridin-2-yl)-1H-pyrazolo[3,4-c]pyridin-5-yl)pyridin-3-yl)pivalamide]	62.1 nM
Fc1ccc(-c2ccnc3[nH]c(-c4n[nH]c5cnc(-c6cncc(CN7CCCC7)c6)cc45)nc23)s1 [Compound 352, 3-(7-(5-Fluorothiophen-2-yl)-3H-imidazo[4,5-b]pyridin-2-yl)-5-(5-(pyrrolidin-1-ylmethyl)pyridin-3-yl)-1H-pyrazolo[3,4-c]pyridine]	156 nM
CCNCc1cncc(-c2cc3c(-c4nc5c(-c6cc(F)cc(NCCN(C)C)c6)ccnc5[nH]4)n[nH]c3cn2)c1 [Compound 448, N^1-(3-(2-(5-(5-((Ethylamino)methyl)pyridin-3-yl)-1H-pyrazolo[3,4-c]pyridin-3-yl)-3H-imidazo[4,5-b]pyridin-7-yl)-5-fluorophenyl)-N^2,N^2-dimethylethane-1,2-diamine]	> 10000 nM
CCCCC(=O)Nc1cncc(-c2cc3c(-c4nc5c(-c6cc(F)cc(NCCN(C)C)c6)ccnc5[nH]4)n[nH]c3cn2)c1 [Compound 460]	139 nM
Fc1cccc(-c2ccnc3[nH]c(-c4n[nH]c5cnc(C6=CCNCC6)cc45)nc23)c1 [Compound 938, 3-(7-(3-Fluorophenyl)-3H-imidazo[4,5-b]pyridin-2-yl)-5-(1,2,3,6-tetrahydropyridin-4-yl)-1H-pyrazolo[3,4-c]pyridine]	> 1000 nM

Other lines, results leading:

IC50	Structure (SMILES)
1860 nM	Fc1cccc(-c2ccnc3[nH]c(-c4n[nH]c5cnc(C6CCNCC6)cc45)nc23)c1 [Compound 937, 3-(7-(3-Fluorophenyl)-3H-imidazo[4,5-b]pyridin-2-yl)-5-(piperidin-4-yl)-1H-pyrazolo[3,4-c]pyridine]
950 nM	Fc1cccc(-c2ccnc3[nH]c(-c4n[nH]c5cnc(-c6cncc(OC7CCCCC7)c6)cc45)nc23)c1 [Compound 943, 5-(5-(Cyclohexyloxy)pyridin-3-yl)-3-(7-(3-fluorophenyl)-3H-imidazo[4,5-b]pyridin-2-yl)-1H-pyrazolo[3,4-c]pyridine]
> 10000 nM	Fc1cccc(-c2ccnc3[nH]c(-c4n[nH]c5cnc(-c6cncc(OC7CCNCC7)c6)cc45)nc23)c1 [Compound 944, 3-(7-(3-Fluorophenyl)-3H-imidazo[4,5-b]pyridin-2-yl)-5-(5-(piperidin-4-yloxy)pyridin-3-yl)-1H-pyrazolo[3,4-c]pyridine]
> 10000 nM	Fc1cccc(-c2ccnc3[nH]c(-c4n[nH]c5cnc(-c6cncc(OCCN7CCCC7)c6)cc45)nc23)c1 [Compound 946, 3-(7-(3-Fluorophenyl)-3H-imidazo[4,5-b]pyridin-2-yl)-5-(5-(2-(pyrrolidin-1-yl)ethoxy)pyridin-3-yl)-1H-pyrazolo[3,4-c]pyridine]
4430 nM	Fc1cccc(-c2ccnc3[nH]c(-c4n[nH]c5cnc(-c6cncc(OCc7ccccc7)c6)cc45)nc23)c1 [Compound 950, 5-(5-(Benzyloxy)pyridin-3-yl)-3-(7-(3-fluorophenyl)-3H-imidazo[4,5-b]pyridin-2-yl)-1H-pyrazolo[3,4-c]pyridine]
> 10000 nM	O=C(CC1CCCCC1)Nc1cncc(-c2cc3c(-c4nc5c(-c6cccc(F)c6)ccnc5[nH]4)n[nH]c3cn2)c1 [Compound 951, 2-Cyclohexyl-N-(5-(3-(7-(3-fluorophenyl)-3H-imidazo[4,5-b]pyridin-2-yl)-1H-pyrazolo[3,4-c]pyridin-5-yl)pyridin-3-yl)acetamide]
253 nM	CC(C)CC(=O)Nc1cncc(-c2cc3c(-c4nc5c(-c6cc(O)cc(F)c6)ccnc5[nH]4)n[nH]c3cn2)c1 [Compound 1350, N-(5-(3-(7-(3-Fluoro-5-hydroxyphenyl)-3H-imidazo[4,5-b]pyridin-2-yl)-1H-pyrazolo[3,4-c]pyridin-5-yl)pyndin-3-yl)-3-methylbutanamide]
646 nM	CN(C)CC(=O)Nc1cncc(-c2cc3c(-c4nc5c(-c6cccc(F)c6)ccnc5[nH]4)n[nH]c3cn2)c1 [Compound 1437, 2-(Dimethylamino)-N-(5-(3-(7-(3-fluorophenyl)-3H-imidazo[4,5-b]pyridin-2-yl)-1H-pyrazolo[3,4-c]pyridin-5-yl)pyridin-3-yl)acetamide]
